Test results published in patent publication US4132738A, “Preparation of 15-deoxy-16-hydroxyprostaglandins” (Miles Laboratories, Inc., priority 1978, dated 1979).

Legend:
guinea pig trachea = experiment: Effects on the guinea pig trachea in vitro; type: cell-based; conditions: comparison in words
Procedure: A male guinea pig weighing 200-500 g was killed by a blow on the head. A 20 mm length of the trachea was dissected from the animal, transferred to a petri dish containing Krebs' solution (aerated with 95% O2 and 5% CO2 at 37° C.), and cut longitudinally opposite the tracheal muscle. The tissue was then cut transversely three quarters of the distance across, a second cut in the opposite direction (again three quarters of the distance across the tissue) was made and the procedure was continued for the whole tissue. The ends of the trachea were pulled to form a zig-zig shaped strip. The tracheal strip used in the experiment was approximately 30 mm when extended under 0.25-0.5 g load in the tissue bath. Cotton thread was tied to one end of the tissue, and linen thread to the other. It was attached via the linen thread to a glass hook in a 5 ml isolated tissue bath containing Krebs' solution (37° C., aerated with a mixture of 95% O2 and 5% CO2). The opposite end was attached via cotton to an isotonic Harvard transducer (Model 386 Heart/Smooth Muscle Transducer, Harvard Apparatus). The load on the transducer lever was small, usually 0.3 g, with a range of 0.25-0.5 g, and the magnification high, 80 fold using an appropriate twin-channel pen recorder. A minimum of thirty minutes was allowed before applying a test compound to the tissue. Test compounds were then applied (in volumes of 0.5 ml) at thirty minute intervals, being in contact with the tissue for five minutes followed by an overflow washout time of twenty seconds.
Prostaglandin E1, at a bath concentration of 0.1 mcg/ml, was then tested repeatedly on two such strips, obtained from two different animals, until two responses (the values of which are recorded) differing by no more than 25% occur. A test compound was then added to the same two strips at bath concentrations of 0.01, 0.1, 1.0, and 10.0 mcg/ml and the effects of the compound were recorded. After the test compound had been evaluated at the highest concentration, PGE1 was retested at 0.1 mcg/ml (and the value of the response recorded) to insure that the viability of the strips was retained during the experiment. The mean of the effects of the test compound on the two strips was then calculated for each concentration, and, biased on the resulting values, an activity value was assigned as follows: […]

[1] = tested on: gastric secretion in the rat; experiment: Effects on gastric secretion in the rat; type: in vivo; conditions: comparison in words
Procedure: A procedure based on that described by Lipman, W. (J. Pharm. Pharmacol., 21: 335 [1968]) was used to assess the influence of test compounds on gastric secretion. Rats of one sex weighing 150 to 200 g were randomly divided into groups of six animals each and fasted for 48 hours previous to the experiments, water being available ad libitum. The animals were anesthetized with ether, the abdomen opened through a midline incision, and the pylorus ligated. Test compounds were diluted from stock solution so as to administer a dose of 1.5 mg/kg in a volume equivalent to 1 ml/kg. Subcutaneous injections were applied immediately after surgery and again 2 hours later, so that a total dose of 3.0 mg/kg was administered. Dilutions were made with phosphate buffer (pH 7.38) as recommended by Lee et al. (Prostaglandins, 3: 29 [1973]) in order to insure adequate stability of drugs at the subcutaneous depot. Each compound was tested in one group of rats; an additional control group received only the vehicle.
Four hours after pyllric ligation the animals were killed with ether, the cardias ligated, and the stomachs removed. The volume of gastric secretion was measured and the contents centrifuged at 5000 rpm for 10 minutes. Total acid in the supernatant was titrated against a 0.1 N sodium hydroxide solution and the amount expressed in mEq.
Volume and total acid values of the treated group were compared with those of the controls […]. Antisecretory activity was scored according to the following scale: […]

[2] = tested on: femoral blood flow in the anesthetized dog; experiment: Effects on femoral blood flow in the anesthetized dog; type: in vivo; conditions: comparison in words
Procedure: The peripheral vasodilator or constrictor effects of test compounds were determined in mongrel dogs of either sex, weighing between 10 and 20 kg, anesthetized intravenously with 35 mg/kg of pentobarbital sodium. An external iliac artery was dissected immediately above the femoral arch for a length of approximately 5 cm, and a previously calibarated, non-cannulating electromagnetic-flowmeter sensor with a lumen between 2.5 and 3.5 mm was placed snugly around the vessel. Cannulas were placed in a branch of the artery arising distally to the location of the flowmeter sensor for intraarterial drug administrations, in the contralateral femoral artery for systemic blood pressure recording, and in the trachea for artificial respiration with room air. Femoral blood flow and systemic blood pressure were continuously recorded with an electromagnetic flowmeter and pressure transducer, respectively.
After an adequate control period, test compounds were injected intraarterially at one log-spaced doses ranging from 0.001 to 10 mcg, in a volume of 0.5 ml and at 5 to 10 minute intervals. […] The dose changing blood flow by 100 ml/min (ED100 ml/min) was calculated graphically and was used for scoring activity as follows: […]

[3] = tested on: blood pressure in the hypertensive rat; experiment: Effects on systolic blood pressure in the hypertensive rat; type: in vivo; design: key: 0: Not significant at any time interval; 1: Significant at one time interval; 2: Significant at two time intervals; conditions: 1 mg/kg intraperitoneal; 2, 4, 6 and 9 hours
Procedure: The acute anithypertensive activity of test compounds was determined in rats made hypertensive by the procedure of Grollman (Proc. Soc. Exper Biol. Med., 57: 102 [1944]). Female rats weighing between 60 and 100 g were anesthetized with ether, the right kidney approached through a flank retroperitoneal incision, decapsulated and tied with a figure-of-eight-ligature. The animals were left to recover and two weeks later were again anesthetized and the contralateral kidney removed. Four weeks after the second operation the rats were subjected to indirect blood pressure measurements and those showing systolic pressure values greater than 160 mmHg were selected for drug testing.
Blood pressure was measured in the tail with an inflatable occluding cuff placed at the base of the extremity and a pulse detector located distally. The cuff was inflated to approximately 300 mmHg and was slowly deflated until pulsations appeared, indicating the level of systolic pressure; diastolic pressure was not recorded by this procedure. All measurements were carried out in unanesthetized, unsedated animals maintained in a warm environment during the recording procedure and for at least 6 hours before. In all cases, three pressure readings were obtained in succession and mean values were calculated thereof.
Experiments were carried out in groups of five hypertensive rats in which systolic pressure was determined immediately before and 2, 4, 6 and 9 hours after intraperiotoneal administration of the test compound at a dose of 1 mg/kg. Drugs were diluted from stock solutions with phosphate buffer (Lee et. al., Prostaglandins, 29 [1973]), so as to inject this quantity in a volume of 1 ml/kg. Changes from control blood pressure values were calculated for each interval both in mmHg and in percent, and evaluated for significance by means of Wilcoxon's signed rank test (Wilcoxon, R. and Wilcox, R. A., "Some Rapid Approximate Statistical Procedures," Lederle Laboratories, Pearl River [1964]).

CCCCC(C)(O)C/C=C/[C@H]1[C@H](O)CC(=O)[C@@H]1CCCCCCC(=O)OC (stereo partly drawn) [TR 4704, Methyl 11α, 16RS-dihydroxy-16-methyl-9-oxoprost-13E-oate, reference compound]
Guinea pig trachea value, carbinol versus methyl ester analogue (guinea pig trachea): the same
GAS value, carbinol versus methyl ester analogue [1]: the same
Femoral blood flow value, methyl ester versus carbinol [2]: significantly and undesirably higher
Blood Pressure Hypertensive Rat: activity value [3]: 0

CCCCC(O)C/C=C/[C@H]1[C@H](O)CC(=O)[C@@H]1CCCCCCC(=O)OC (stereo partly drawn) [TR 4705, Methyl 11α, 16RS-dihydroxy-9-oxoprost-13E-en-1-oate, reference compound]
Guinea pig trachea value, carbinol versus methyl ester analogue (guinea pig trachea): the same
GAS value, carbinol versus methyl ester analogue [1]: the same
Femoral blood flow value, methyl ester versus carbinol [2]: slightly higher
Blood Pressure Hypertensive Rat: activity value [3]: 0
